“Also recorded” adds a separate entry of the source.
Test system: human basophils
Test: antidegranulating or antiactivating activity on human basophils by flow cytometry (anti-IgE stimulation, CD63 label)
Assay type: cell-based
Conditions: in vitro, same experimental conditions as the oligosaccharides
Experimental: In order to test the antidegranulating or antiactivating activity of the oligosaccharides on human basophils by flow cytometry, leukocyte suspensions from different individuals selected as being good at responding to anti-IgE were used to isolate the leukocytes, by simple sedimentation at 1 g. These leukocytes are preincubated for 30 minutes with successive dilutions from 10 to 0.01 mg/ml of the test product. The basophils are then stimulated with a target concentration of a human anti-IgE labeled with a mixture of anti-IgE FITC and anti-CD63PE antibodies, CD63 being an activation label for human basophils. The percentages of activation or of inhibition are then calculated by flow cytometry. The biological activity of the oligosaccharides was thus evaluated.
The same biological tests were performed on structural analogs such as raffinose or oligosaccharides comprising an α bond between a galactose unit and another saccharide unit such as in melibiose.
Tests were thus undertaken. […] The percentage of inhibition was calculated by repeating the experiment three times.

## OC[C@H]1O[C@H](OCC2O[C@@H](O)[C@H](O)[C@@H](O)[C@@H]2O)[C@H](O)[C@@H](O)[C@H]1O (stereo partly shown) [melibiose]
  activity on leukocytes / mastocytes: not active; also recorded: absolutely no activity

Reference: patent publication US6946121B2, “Composition in particular cosmetic or dermatological composition, containing oligosaccharides and preparation method and cosmetic treatment method” (Laboratories G Pharm, priority 1999, dated 2005)
